Laboratory results reported in US11701315B2, “High energy visible light filter systems with yellowness index values” (High Performance Optics, Inc., priority 2006, dated 2023).

Key:
[1] = in methanol, cited from earlier work
[2] = Transmission and absorption properties stated in the text for known lenses and dyes; type: physicochemical

SMILES | maximum of excitation spectrum ([1]; monitored at 600 nm emission) [nm] | major peak of absorbance spectrum [1] [nm] | absorption maximum [2] [nm]
CC1=C(/C=C/C(C)=C/C=C/C(C)=C/c2cc(/C=C/C=C(C)/C=C/C3=C(C)CCCC3(C)C)cc[n+]2CCO)C(C)(C)CCC1 [A2E] | 418 | 435 | 
c1cc2cccc3c4cccc5cccc(c(c1)c23)c54 [perylene] |  |  | 437
